Laboratory results reported in BindingDB's records for doi:10.1016/j.ejmech.2019.111601 (National Institute of Pharmaceutical Education and Research …, 2019).

Key:
[1] = biological target: Prostaglandin G/H synthase 1 (Ovis aries) (UniProt P05979); assay: Inhibition of ovine COX1 assessed as reduction in PGF2alpha incubated for 2 mins using arachidonic acid as substrate by ELISA
[2] = biological target: Prostaglandin G/H synthase 2 (Homo sapiens) (UniProt P35354); assay: Inhibition of recombinant human COX2 assessed as reduction in PGF2alpha incubated for 2 mins using arachidonic acid as substrate by ELISA
Chain of Prostaglandin G/H synthase 2 (Homo sapiens) (P35354 whole entry, looked up): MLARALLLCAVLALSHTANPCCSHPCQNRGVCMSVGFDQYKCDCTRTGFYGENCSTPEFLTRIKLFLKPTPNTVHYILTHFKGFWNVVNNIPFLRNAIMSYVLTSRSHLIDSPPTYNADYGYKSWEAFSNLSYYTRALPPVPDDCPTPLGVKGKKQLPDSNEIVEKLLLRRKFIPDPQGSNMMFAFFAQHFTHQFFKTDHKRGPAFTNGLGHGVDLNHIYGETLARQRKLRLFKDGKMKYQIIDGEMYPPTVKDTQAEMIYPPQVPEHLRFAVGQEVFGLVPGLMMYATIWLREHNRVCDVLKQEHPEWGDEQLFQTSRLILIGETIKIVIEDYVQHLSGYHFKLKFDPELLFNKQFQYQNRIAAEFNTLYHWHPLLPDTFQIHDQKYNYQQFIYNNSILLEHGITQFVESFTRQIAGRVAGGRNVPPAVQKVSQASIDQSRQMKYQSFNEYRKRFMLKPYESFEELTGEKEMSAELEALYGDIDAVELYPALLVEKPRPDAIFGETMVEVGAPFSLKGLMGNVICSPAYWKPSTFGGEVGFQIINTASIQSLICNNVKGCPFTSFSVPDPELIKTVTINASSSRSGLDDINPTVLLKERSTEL

Compound	IC50 [1] [µM]	IC50 [2] [µM]
CC(=O)N(C1=CC(=O)CCC1)c1ccc(Cl)cc1	39.9	0.367
O=C1C=C(Nc2ccc(Cl)cc2)CCC1	38	0.513
CC(C)(C)OC(=O)N(C1=CC(=O)CCC1)c1ccc(Cl)cc1	17.8	0.915
